Source: ChEMBL document CHEMBL1145362, “Structure-activity relationships of SERMs optimized for uterine antagonism and ovarian safety” (Bioorg Med Chem Lett, 2007)

Legend:
[1] = test system: Rattus norvegicus; experiment: Inhibition of estradiol-induced increase in uterine wet weight in orally dosed Sprague-Dawley rat after 3 days; assay type: functional; conditions: po, 72 h
[2] = target: Estrogen receptor beta (Homo sapiens, UniProt Q92731); experiment: Displacement of [3H]estradiol from human recombinant ERbeta
Estrogen receptor beta, sequence (Q92731 whole entry): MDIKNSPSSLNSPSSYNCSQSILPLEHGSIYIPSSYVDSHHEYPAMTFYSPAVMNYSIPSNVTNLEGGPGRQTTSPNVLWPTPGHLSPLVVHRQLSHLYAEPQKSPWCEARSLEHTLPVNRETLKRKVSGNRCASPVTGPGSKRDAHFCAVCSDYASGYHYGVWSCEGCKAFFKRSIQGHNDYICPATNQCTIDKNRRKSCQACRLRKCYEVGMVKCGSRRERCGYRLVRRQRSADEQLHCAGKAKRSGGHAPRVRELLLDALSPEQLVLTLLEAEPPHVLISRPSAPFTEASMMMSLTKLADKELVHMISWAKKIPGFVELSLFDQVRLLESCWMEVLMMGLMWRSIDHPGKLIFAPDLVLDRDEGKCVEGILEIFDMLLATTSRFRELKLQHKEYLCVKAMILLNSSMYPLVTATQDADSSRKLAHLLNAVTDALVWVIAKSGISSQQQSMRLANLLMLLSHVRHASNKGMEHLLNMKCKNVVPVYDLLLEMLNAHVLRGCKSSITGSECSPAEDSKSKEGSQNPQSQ

[3] = test system: Ishikawa; experiment: Inhibition of estrogen stimulation in human Ishikawa cells by alkaline phosphatase quantitation; assay type: functional, cell-based; conditions: for IC50: Homo sapiens, Ishikawa
[4] = test system: Rattus norvegicus; experiment: Inhibition of estrogen stimulation in Sprague-Dawley rat at 10 mg/kg; assay type: functional
[5] = test system: Ishikawa; experiment: Increase in estrogen stimulation in human Ishikawa cells by alkaline phosphatase quantitation at 1 uM relative to control; assay type: functional
[6] = target: T1, Estrogen receptor (Homo sapiens, UniProt P03372)
T1 sequence (P03372 whole entry): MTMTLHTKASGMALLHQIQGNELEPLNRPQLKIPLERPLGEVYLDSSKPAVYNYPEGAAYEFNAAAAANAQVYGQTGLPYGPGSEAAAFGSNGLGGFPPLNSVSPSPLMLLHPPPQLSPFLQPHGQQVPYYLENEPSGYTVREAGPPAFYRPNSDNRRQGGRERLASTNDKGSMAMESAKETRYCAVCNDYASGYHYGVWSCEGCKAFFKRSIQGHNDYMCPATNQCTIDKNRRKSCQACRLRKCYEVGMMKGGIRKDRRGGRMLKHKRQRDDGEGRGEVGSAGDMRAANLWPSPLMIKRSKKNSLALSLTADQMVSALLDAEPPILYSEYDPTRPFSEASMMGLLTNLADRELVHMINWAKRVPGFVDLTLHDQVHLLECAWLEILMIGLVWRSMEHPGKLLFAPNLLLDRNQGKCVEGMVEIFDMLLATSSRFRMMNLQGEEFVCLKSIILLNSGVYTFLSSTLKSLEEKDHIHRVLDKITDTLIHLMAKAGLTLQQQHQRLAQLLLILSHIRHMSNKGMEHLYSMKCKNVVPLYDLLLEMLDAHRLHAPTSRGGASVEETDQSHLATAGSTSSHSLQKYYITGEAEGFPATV
Description: Displacement of [3H]estradiol from human recombinant ERalpha

[7] = Drug level in Sprague-Dawley rat plasma at 10 mg/kg, po after 6 hrs; assay type: ADME, organism-based; design: dose 10 mg/kg, route oral; conditions: read-out: Drug uptake
[8] = Drug level in Sprague-Dawley rat brain at 10 mg/kg, po after 6 hrs; assay type: ADME, organism-based; design: dose 10 mg/kg, route oral; conditions: read-out: Drug uptake
[9] = Ratio of log of drug level in brain to blood in Sprague-Dawley rat; assay type: ADME, tissue-based; conditions: read-out: logBB (converted)
[10] = test system: Rattus norvegicus; experiment: Increase in uterine wet weight in Sprague-Dawley rat at 0.1 mg/kg; assay type: functional

Work on `CC(C)S(=O)(=O)c1ccc(-c2ccc3cc(O)ccc3c2Oc2ccc(OCCN3CCCCC3)cc2)cc1` yielded an ED50 [1] of 0.37 mg/kg, a Ki [2] of 2.17 nM and an Efficacy [3] of 96%. The IC50 [3] was 4.9 nM, the ED50 [4] was less than 1 mg/kg and the inhibition in vivo at 10 mg/kg [4] was 83%. It also gave an Efficacy [5] of 11% and a Ki [6] of 0.73 nM.
Work on `CCS(=O)(=O)c1ccc(-c2sc3cc(O)ccc3c2Oc2ccc(OCCN3CCCCC3)cc2)cc1` yielded an ED50 [1] of 0.56 mg/kg, a Ki [2] of 15.7 nM and an Efficacy [3] of 95%. The IC50 [3] was 14.5 nM, the ED50 [4] was less than 1 mg/kg and the inhibition in vivo at 10 mg/kg [4] was 83%. The Efficacy [5] was 16%.
Compound `CN(C)S(=O)(=O)c1ccc(-c2ccc3cc(O)ccc3c2Oc2ccc(OCCN3CCCCC3)cc2)cc1` has an ED50 [1] of 0.44 mg/kg, a Ki [2] of 1.69 nM and a concentration at 6 h [7] of 0.108 µg/mL. It also gave a concentration at 6 h [8] of 46 ng/g, a Kp [9] of 0.427 and an Efficacy [3] of 99%. For the same compound, the IC50 [3] was 2.8 nM, the ED50 [4] was less than 1 mg/kg and the inhibition in vivo at 10 mg/kg [4] was 83%. The Efficacy [5] was 27% and the Ki [6] was 0.4 nM.
In the case of `O=S1(=O)CC=C(c2ccc3cc(O)ccc3c2Oc2ccc(OCCN3CCCCC3)cc2)CC1`, the ED50 [1] is reported as 0.25 mg/kg, the Ki [2] is reported as 2.1 nM and the Efficacy [3] is reported as 98%. The IC50 [3] was 7.2 nM, the ED50 [4] was less than 1 mg/kg and the inhibition in vivo at 10 mg/kg [4] was 83%. The Efficacy [5] was 19% and the Ki [6] was 1.03 nM.
Work on `Oc1ccc2c(Oc3ccc(OCCN4CCCCC4)cc3)c(-c3ccc(F)c(F)c3)ccc2c1` yielded an ED50 [1] of 0.058 mg/kg, a Ki [2] of 0.29 nM and a concentration at 6 h [7] of 0.418 µg/mL. It also gave a concentration at 6 h [8] of 3490 ng/g, a Kp [9] of 8.32 and an Efficacy [3] of 96%. The IC50 [3] was 3.9 nM, the ED50 [4] was less than 1 mg/kg and the inhibition in vivo at 10 mg/kg [4] was 83%. For the same compound, the Efficacy [5] was 13% and the Ki [6] was 0.2 nM.
`CN(C)C(=O)c1ccc(-c2ccc3cc(O)ccc3c2Oc2ccc(OCCN3CCCCC3)cc2)cc1` showed an ED50 [1] of 0.19 mg/kg, a Ki [2] of 1.16 nM and an Efficacy [3] of 95%. The IC50 [3] was 6.7 nM, the ED50 [4] was less than 1 mg/kg and the inhibition in vivo at 10 mg/kg [4] was 83%. It also gave an Efficacy [5] of 25% and a Ki [6] of 0.57 nM.
`O=S1(=O)CCC(c2ccc3cc(O)ccc3c2Oc2ccc(OCCN3CCCCC3)cc2)CC1` gave an ED50 [1] of 0.34 mg/kg, a Ki [2] of 4.11 nM and an Efficacy [3] of 93%. For the same compound, the IC50 [3] was 15.7 nM, the ED50 [4] was less than 1 mg/kg and the inhibition in vivo at 10 mg/kg [4] was 83%. It also gave an Efficacy [5] of 27% and a Ki [6] of 1.89 nM.
Work on `CS(=O)(=O)c1ccc(-c2ccc3cc(O)ccc3c2Oc2ccc(OCCN3CCCCC3)cc2)cc1` yielded a concentration at 6 h [7] of 0.66 µg/mL, a concentration at 6 h [8] of 103 ng/g and a Kp [9] of 0.155.
Work on `C#CC1(O)CC[C@H]2[C@@H]3CCc4cc(O)ccc4[C@H]3CC[C@@]21C` (single isomer, unassigned) [ETHINYL ESTRADIOL] yielded a Fold change [10] of 3.
Work on `CCS(=O)(=O)c1ccc(-c2ccc3cc(O)ccc3c2Oc2ccc(OCCN3CCCCC3)cc2)cc1` yielded an ED50 [1] of 0.14 mg/kg, a Ki [2] of 4.19 nM and a concentration at 6 h [7] of 0.357 µg/mL. It also gave a concentration at 6 h [8] of 43 ng/g, a Kp [9] of 0.12 and an Efficacy [3] of 95%. It also gave an IC50 [3] of 6.1 nM, an ED50 [4] of less than 1 mg/kg and an inhibition in vivo at 10 mg/kg [4] of 83%. The Efficacy [5] was 19% and the Ki [6] was 1.22 nM.
Work on `Oc1ccc2c(Oc3ccc(OCCN4CCCCC4)cc3)c(-c3cccc(F)c3)ccc2c1` yielded an ED50 [1] of 0.23 mg/kg, a Ki [2] of 0.16 nM and a concentration at 6 h [7] of 0.137 µg/mL. For the same compound, the concentration at 6 h [8] was 730 ng/g, the Kp [9] was 5.37 and the Efficacy [3] was 97%. It also gave an IC50 [3] of 4.8 nM, an ED50 [4] of less than 1 mg/kg and an inhibition in vivo at 10 mg/kg [4] of 83%. It also gave an Efficacy [5] of 15% and a Ki [6] of 0.18 nM.
Compound `CC(C)c1ccc(-c2sc3cc(O)ccc3c2Oc2ccc(OCCN3CCCCC3)cc2)cc1` has an ED50 [1] of 0.16 mg/kg, a Ki [2] of 0.63 nM and an Efficacy [3] of 95%. It also gave an IC50 [3] of 16.2 nM, an ED50 [4] of less than 1 mg/kg and an inhibition in vivo at 10 mg/kg [4] of 83%. It also gave an Efficacy [5] of 29% and a Ki [6] of 0.091 nM.
Compound `Oc1cccc(-c2ccc3cc(O)ccc3c2Oc2ccc(OCCN3CCCCC3)cc2)c1` has an ED50 [1] of 0.13 mg/kg, a Ki [2] of 0.36 nM and a concentration at 6 h [7] of 0.211 µg/mL. The concentration at 6 h [8] was 57 ng/g, the Kp [9] was 0.269 and the Efficacy [3] was 100%. It also gave an IC50 [3] of 2.1 nM, an ED50 [4] of less than 1 mg/kg and an inhibition in vivo at 10 mg/kg [4] of 83%. For the same compound, the Efficacy [5] was 26% and the Ki [6] was 0.21 nM.
`CS(=O)(=O)c1ccc(-c2sc3cc(O)ccc3c2Oc2ccc(OCCN3CCCCC3)cc2)cc1` showed an ED50 [1] of 0.62 mg/kg, a Ki [2] of 13.6 nM and an Efficacy [3] of 97%. The IC50 [3] was 22.2 nM, the ED50 [4] was less than 1 mg/kg and the inhibition in vivo at 10 mg/kg [4] was 83%. The Efficacy [5] was 24% and the Ki [6] was 0.63 nM.
In the case of `CS(=O)(=O)C1CC=C(c2ccc3cc(O)ccc3c2Oc2ccc(OCCN3CCCCC3)cc2)CC1` (centres undefined), the ED50 [1] is reported as 0.26 mg/kg, the Ki [2] is reported as 2.69 nM and the Efficacy [3] is reported as 99%. It also gave an IC50 [3] of 8 nM, an ED50 [4] of less than 1 mg/kg and an inhibition in vivo at 10 mg/kg [4] of 83%. For the same compound, the Efficacy [5] was 24% and the Ki [6] was 1.09 nM.
For `N#Cc1cccc(-c2ccc3cc(O)ccc3c2Oc2ccc(OCCN3CCCCC3)cc2)c1`, the ED50 [1] was 0.37 mg/kg, the Ki [2] was 0.35 nM and the concentration at 6 h [7] was 0.36 µg/mL. For the same compound, the concentration at 6 h [8] was 529 ng/g, the Efficacy [3] was 94% and the IC50 [3] was 18.5 nM. For the same compound, the ED50 [4] was less than 1 mg/kg, the inhibition in vivo at 10 mg/kg [4] was 83% and the Efficacy [5] was 23%. For the same compound, the Ki [6] was 0.24 nM.
With `Oc1ccc(-c2ccc3cc(O)ccc3c2Oc2ccc(OCCN3CCCCC3)cc2)cc1` the ED50 [1] was 0.3 mg/kg, the Ki [2] was 0.48 nM and the concentration at 6 h [7] was 0.277 µg/mL. For the same compound, the concentration at 6 h [8] was 47 ng/g, the Kp [9] was 0.17 and the Efficacy [3] was 96%. The IC50 [3] was 4.7 nM, the ED50 [4] was less than 1 mg/kg and the inhibition in vivo at 10 mg/kg [4] was 83%. For the same compound, the Efficacy [5] was 13% and the Ki [6] was 0.32 nM.
In the case of `Oc1ccc2c(Oc3ccc(OCCN4CCCCC4)cc3)c(-c3ccc(F)cc3)ccc2c1`, the ED50 [1] is reported as 0.015 mg/kg, the Ki [2] is reported as 0.28 nM and the concentration at 6 h [7] is reported as 0.151 µg/mL. The concentration at 6 h [8] was 2690 ng/g, the Kp [9] was 17.8 and the Efficacy [3] was 93%. For the same compound, the IC50 [3] was 3.2 nM, the ED50 [4] was less than 1 mg/kg and the inhibition in vivo at 10 mg/kg [4] was 83%. It also gave an Efficacy [5] of 21% and a Ki [6] of 0.24 nM.
